From patent US10029994B2, “Isoxazole hydroxamic acid compounds as LpxC inhibitors” (priority 2014, dated 2018)
Like-named read-outs stand apart in the source and are kept apart here.

Key:
P. aeruginosa LpxC = biological target: T1, P. aeruginosa LpxC (Pseudomonas aeruginosa, UniProt P47205); test: P. aeruginosa LpxC Inhibition Assay (LC-MS/MS); format: biochemical; details: 1 nM P. aeruginosa LpxC, 30 min pre-incubation, 2 μM UDP-3-O-(R-3-hydroxydecanoyl)-GlcNAc, pH 7.5
T1 construct: made in house
T1 sequence (P47205 1-303): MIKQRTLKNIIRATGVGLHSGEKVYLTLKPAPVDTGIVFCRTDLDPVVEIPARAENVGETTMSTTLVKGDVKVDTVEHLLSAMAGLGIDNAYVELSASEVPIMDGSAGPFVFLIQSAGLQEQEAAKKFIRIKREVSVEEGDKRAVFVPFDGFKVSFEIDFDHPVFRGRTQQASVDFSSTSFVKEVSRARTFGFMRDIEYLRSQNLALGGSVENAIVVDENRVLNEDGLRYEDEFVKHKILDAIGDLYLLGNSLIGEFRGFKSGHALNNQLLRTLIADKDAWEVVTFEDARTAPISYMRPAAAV
Text: P. aeruginosa LpxC Inhibition Assay
The P. aeruginosa LpxC protein is produced according to the general method of Hyland et al (Journal of Bacteriology 1997 179, 2029-2037: Cloning, expression and purification of UDP-3-O-acyl-GlcNAc deacetylase from Pseudomonas aeruginosa: a metalloamidase of the lipid A biosynthesis pathway). The LC-MS/MS method for quantitation of LpxC product was developed using an Agilent 1200 Capillary HPLC system coupled to an Applied Biosystems MDS Sciex 4000QTRAP mass spectrometer. Both instruments are controlled using the Applied Biosystems MDS Sciex Analyst software. LpxC reaction product (UDP-3-O—(R-3-hydroxyacyl)-glucosamine) was produced by hydrolysis of LpxC substrate catalyzed by P.a. LpxC and purified using reversed phase chromatography on a Phenomenex Luna C18(2) 4.6×50 mm column. An LpxC product calibration curve was generated to evaluate the sensitivity and dynamic range of the LC-MS/MS method. Briefly, compounds are pre-incubated with 1 nM P. aeruginosa LpxC for 30 min. at room temperature. Reactions are initiated by the addition of 2 μM UDP-3-O—(R-3-hydroxydecanoyl)-GlcNAc. Reactions are conducted in a 384-well plate with a total volume of 50 μL in each well containing 50 mM Sodium phosphate pH 7.5, 0.005% Trition X-100 for 20 min at room temperature. After quenching with 1.8% HOAc (5 μL of a 20% HOAc added to each well), reaction mixtures are analyzed using the LC-MS/MS method and peak areas are transformed into product concentration using a LpxC product calibration curve. Total activity (0% inhibition control) is obtained from reactions with no inhibitors and 100% inhibition control is the background using quenched samples before reaction starts. For IC50 determinations, peak areas are converted to percent inhibition in Microsoft Excel. Percent inhibition values are plotted vs. log compound concentration using XLfit. Data is fit to the four-parameter logistic equation using the non-linear regression algorithm in XLfit to return the IC50 and hill slope values.

P. A. PAO1 NB52019 = test: MIC, broth microdilution (CLSI); format: cell-based, Pseudomonas aeruginosa; details: Pseudomonas aeruginosa, read-out: P. A. PAO1 NB52019 MIC
Method: (§1) Bacterial isolates were cultivated from −70° C. frozen stocks by two consecutive overnight passages at 35° C. in ambient air on 5% blood agar (Remel, Lenexa, Kans.). Quality control strain, P. aeruginosa ATCC 27853, A. baumannii ATCC19606 and E. coli ATCC 25922 are from the American Type Culture Collection (ATCC; Rockville, Md.) and PAO1 was received from Dr. K. Poole.
(§2) Minimal Inhibitory Concentrations (MICs) were determined by the broth microdilution method in accordance with Clinical and Laboratories Institute (CLSI) guidelines (CLSI M100-S25, Performance Standards for Antimicrobial Susceptibility Testing; Twenty-fifth Informational Supplement). In brief, fresh bacterial overnight cultures were resuspended in sterile saline, adjusted to a 0.5 McFarland turbidity standard and then diluted 2000-fold in cation adjusted Mueller-Hinton Broth II (MHB; Remel BBL) to yield a final inoculum of approximately 5×10^5 colony-forming units (CFU)/mL. Two-fold serial dilutions of compounds were prepared in 100% dimethyl sulfoxide (DMSO) at 100-fold the highest final assay concentration; the resulting dilution series of compounds were diluted 1:10 with sterile water. Ten μl of the drug dilution series in 10% DMSO was transferred to microtiter wells and 90 μl of bacterial suspension was inoculated into the wells. For testing the ability of compounds to potentiate the activity of known antibiotics, the assay was modified as follows; known antibiotics were added to the bacterial inoculum at 1.1-fold the final assay concentration indicated in Table A. All inoculated microdilution trays were incubated in ambient air at 35° C. for 20 hours. Following incubation, assay plates were read in a microtiter plate reader at 600 nm and visually inspected to confirm the MIC endpoint well with the OD value. The lowest concentration of the compound that prevented visible growth was recorded as the MIC. Performance of the assay was monitored by testing ciprofloxacin against the laboratory quality control strain in accordance with guidelines of the CLSI.

E. C. ATCC 25922 = test: MIC, broth microdilution (CLSI); format: cell-based, Escherichia coli; details: Escherichia coli, ATCC25922, 20 h, read-out: E. C. ATCC 25922 MIC
Method: as §1, §2

E. C. ATCC 29522 = test: MIC in the presence of sub-inhibitory rifampicin (potentiation/synergy); format: cell-based, Escherichia coli; details: +2 μg/ml rifampicin (RIF); broth microdilution, 35° C., 20 hours
Method: as §1, §2

A. B. ATCC 19606 [1] = test: MIC, broth microdilution (CLSI); format: cell-based, Acinetobacter baumannii; details: Acinetobacter baumannii, read-out: A. B. ATCC 19606 MIC
Method: as §1, §2

A. B. ATCC 19606 [2] = test: MIC in the presence of sub-inhibitory rifampicin (potentiation/synergy); format: cell-based, Acinetobacter baumannii; details: +2 μg/ml rifampicin (RIF); broth microdilution, 35° C., 20 hours
Method: as §1, §2

[3] = PAO1, broth microdilution, 35° C., 20 hours
[4] = broth microdilution, 35° C., 20 hours
[5] = ATCC19606, broth microdilution, 35° C., 20 hours

IC50 (P. aeruginosa LpxC) [nM] | MIC (P. A. PAO1 NB52019; [3]) [µg/mL] | MIC (E. C. ATCC 25922; [4]) [µg/mL] | E. C. ATCC 29522 (+2 μg/ml RIF) MIC (E. C. ATCC 29522) [µg/mL] | MIC (A. B. ATCC 19606 [1]; [5]) [µg/mL] | A. B. ATCC 19606 (+2 μg/ml RIF) MIC (A. B. ATCC 19606 [2]) [µg/mL] | Compound | MIC (P. A. PAO1 NB52019; PAO1, 20 h) [µg/mL] | MIC (E. C. ATCC 25922) [µg/mL] | MIC (A. B. ATCC 19606 [1]; ATCC19606, 20 h) [µg/mL]
< 1 | 0.5 | 16 | 0.25 | > 64 | ≤0.06 | C[C@@](CCc1cc(C#CC2CC(F)(F)C2)on1)(C(=O)NO)S(C)(=O)=O [Compound 1.12, (R)-4-(5-((3,3-difluorocyclobutyl)ethynyl)isoxazol-3-yl)-N-hydroxy-2-methyl-2-(methylsulfonyl)butanamide] |  |  | 
< 1 | 0.5 | 1 | 0.125 | > 64 | 4 | COC(CO)c1ccc(C#Cc2cc(CCC(C)(C(=O)NO)S(C)(=O)=O)no2)cc1 (stereo not drawn) [Compound 2.3, N-hydroxy-4-(5-((4-(2-hydroxy-1-methoxyethyl)phenyl)ethynyl)isoxazol-3-yl)-2-methyl-2-(methylsulfonyl)butanamide] |  |  | 
< 1 | 0.25 | 0.25 | ≤0.06 | > 64 | 0.5 | CC(CCc1cc(C#Cc2ccc(CCO)cc2)on1)(C(=O)NO)S(C)(=O)=O (stereo not drawn) [Compound 2.2, N-hydroxy-4-(5-((4-(2-hydroxyethyl)phenyl)ethynyl)isoxazol-3-yl)-2-methyl-2-(methylsulfonyl)butanamide] |  |  | 
< 1 | 0.25 | 8 | 2 | > 64 | 0.25 | CC(C)(C)C#Cc1cc(CC[C@](C)(C(=O)NO)S(C)(=O)=O)no1 [Compound 1.3, (R)-4-(5-(3,3-dimethylbut-1-yn-1-yl)isoxazol-3-yl)-N-hydroxy-2-methyl-2-(methylsulfonyl)butanamide] |  |  | 
2 | 0.25 | 4 | ≤0.06 | > 64 | 2 | CC#Cc1cc(CC[C@](C)(C(=O)NO)S(C)(=O)=O)no1 [Compound 1.4, (R)—N-hydroxy-2-methyl-2-(methylsulfonyl)-4-(5-(prop-1-yn-1-yl)isoxazol-3-yl)butanamide] |  |  | 
< 1 | 0.25 | ≤ 0.06 | 0.06 | 64 | ≤0.06 | Cc1cc([C@H](O)[C@](C)(NCc2cc(C#Cc3ccccc3)on2)C(=O)NO)no1 [Compound 3.3, (2S,3R)—N,3-dihydroxy-2-methyl-3-(5-methylisoxazol-3-yl)-2-(((5-(phenylethynyl)isoxazol-3-yl)methyl)amino)propanamide] |  |  | 
< 1 | 0.25 | 2 | 0.25 | > 64 | 0.25 | C[C@@](CCc1cc(/C(F)=C/C2CC2)on1)(C(=O)NO)S(C)(=O)=O [Compound 4.5-1, (R,Z)-4-(5-(2-cyclopropyl-1-fluorovinyl)isoxazol-3-yl)-N-hydroxy-2-methyl-2-(methylsulfonyl)butanamide] |  |  | 
1 | 0.25 | 4 | ≤0.06 | > 64 | ≤0.06 | CCC#Cc1cc(CC[C@](C)(C(=O)NO)S(C)(=O)=O)no1 [Compound 1.5, (R)-4-(5-(but-1-yn-1-yl)isoxazol-3-yl)-N-hydroxy-2-methyl-2-(methylsulfonyl)butanamide] |  |  | 
< 1 | 0.25 | 1 | 0.125 | > 64 | 1 | C[C@@](CCc1cc(C#Cc2ccc([C@@H](O)CO)cc2)on1)(C(=O)NO)S(C)(=O)=O [Compound 2.8, (R)-4-(5-((4-((R)-1,2-dihydroxyethyl)phenyl)ethynyl)isoxazol-3-yl)-N-hydroxy-2-methyl-2-(methylsulfonyl)butanamide] |  |  | 
1 | 1 | 32 | 0.5 | > 64 | 1 | C[C@@](CCc1cc(C#CCCC(F)F)on1)(C(=O)NO)S(C)(=O)=O [Compound 1.11, (R)-4-(5-(5,5-Difluoropent-1-yn-1-yl)isoxazol-3-yl)-N-hydroxy-2-methyl-2-(methylsulfonyl)butanamide] |  |  | 
2 | 4 | 2 | 0.5 | 64 | 0.125 | CC(NCc1cc(C#CC2CC2)on1)(C(=O)NO)C(O)c1cc(C2CC2)on1 (stereo not drawn) [Compound 3.6, 2-(((5-(cyclopropylethynyl)isoxazol-3-yl)methyl)amino)-3-(5-cyclopropylisoxazol-3-yl)-N, 3-dihydroxy-2-methylpropanamide] |  |  | 

Compound | IC50 (P. aeruginosa LpxC) [nM] | MIC (P. A. PAO1 NB52019; [3]) [µg/mL] | MIC (E. C. ATCC 25922; [4]) [µg/mL] | E. C. ATCC 29522 (+2 μg/ml RIF) MIC (E. C. ATCC 29522) [µg/mL] | MIC (A. B. ATCC 19606 [1]; [5]) [µg/mL] | A. B. ATCC 19606 (+2 μg/ml RIF) MIC (A. B. ATCC 19606 [2]) [µg/mL] | MIC (P. A. PAO1 NB52019; PAO1, 20 h) [µg/mL] | MIC (E. C. ATCC 25922) [µg/mL] | MIC (A. B. ATCC 19606 [1]; ATCC19606, 20 h) [µg/mL]
Cc1cc([C@H](O)[C@](C)(NCc2cc(C#CC3CC3)on2)C(=O)NO)no1 [Compound 3.1, (2S,3R)-2-(((5-(cyclopropylethynyl)isoxazol-3-yl)methyl)amino)-N,3-dihydroxy-2-methyl-3-(5-methylisoxazol-3-yl)propanamide] | < 1 |  |  | ≤0.06 |  | ≤0.06 | 0.5 | 1 | > 64
C/C=C(\C)c1cc(CC[C@](C)(C(=O)NO)S(C)(=O)=O)no1 [Compound 4.3-1, (R,E)-4-(5-(but-2-en-2-yl)isoxazol-3-yl)-N-hydroxy-2-methyl-2-(methylsulfonyl)butanamide] | 3 |  |  | 0.5 |  | 8 | 2 | 32 | > 64
